Laboratory results reported in publication PMC10059057, “Antileishmanial and Antiplasmodial Activities of Secondary Metabolites from the Root of Antrocaryon klaineanum Pierre (Anacardiaceae)” (Molecules, 2023).
In brackets after ≈: the same amount, converted by molar mass. Like-named read-outs stand apart in the source and are kept apart here.

Key:
[1] = test system: P. falciparum chloroquine-resistant (PfDd2); test: Antiplasmodial SYBR green I based fluorescence assay, chloroquine-resistant strain; type: cell-based; settings: Plasmodium falciparum, read-out: PfDd2 IC50 ± SD
From the text: (§1) The cryopreserved chloroquine-sensitive (Pf3D7-(MRA-102)), the multi-resistant (PfDd2) of Plasmodium falciparum, and the promastigote form of Leishmania donovani strains were obtained from BEI Resources (https://www.beiresources.org/ (accessed on 16 February 2019)) and are routinely cultured at the Antimicrobial and Biocontrol Agents Unit, University of Yaoundé I.
(§2) Plasmodium falciparum strains were maintained in 60 mm sterile petri dishes containing complete RPMI 1640 medium [RPMI 1640 (Sigma Aldrich) supplemented with 0.2% sodium bicarbonate (Sigma Aldrich), 0.5% Albumax II (Gibco), 1% hypoxanthine 100X (Gibco, Billings, MT, USA), 25 mM HEPES, and 0.04% gentamicin (Sigma Aldrich)] with fresh O^+ erythrocytes of healthy human volunteers suspended at 4% haematocrit (v/v) and incubated at 37 °C in a 5% CO2 humidified atmosphere. The medium was replaced daily with fresh complete medium to propagate the culture. Ten percent (10%) Giemsa-stained thin blood smears were examined microscopically under immersion oil to monitor cell-cycle transition and parasitaemia.
(§3) A stock solution was prepared at 100 mg/mL for each extract and fraction and at 50 mg/mL for isolated compound in 100% DMSO (Sigma–Aldrich, Munich, Germany). Master plates were then prepared by mixing 2 μL of each stock solution with 198 μL of fresh incomplete RPMI 1 640 culture medium to yield a concentration of 1 mg/mL for extract and fraction and of 0.5 mg/mL (1% DMSO) followed by a 5-fold serial dilution. Extracts and fractions were tested at concentrations ranging from 0.16 to 100 μg/mL, and isolated compounds at concentrations ranging from 0.08 to 50 μg/mL.
(§4) The use of mixed-stage cultures can enable the test molecules to interact with all the three stages (ring, trophozoite, and schizont) found during a 48-h life cycle of P. falciparum in culture. Moreover, starting the experiment with a synchronized ring stage culture provides the advantage of monitoring the growth inhibitory effect of test samples without a rise-up in parasitemia during the ring–trophozoite–schizont transitions. For this particular reason, parasites were synchronized at the ring stage by serial treatment with 5 % sorbitol for two days prior to each experiment with respect to Lambros and Vanderberg, 1979 [44] protocol.
(§5) Drug sensitivity assay was carried out in 96-well microtitration plates using the SYBR green I based fluorescence assay (Smilkstein et al., 2004). […] The fact that human red blood host cells are anucleate allows the use of SYBR green for the proper monitoring of the growth of the malarial parasite.
(§6) The 96 wells flat-bottom assay plates with sorbitol-synchronized ring stage parasites (haematocrit: 1%, parasitaemia: 2%, 90 μL) were incubated in the presence of 10 µL of pre-diluted extracts, fractions, isolated compounds, and reference drugs [Chloroquine and Artemisinin (Sigma–Aldrich, Munich, Germany)] at different triplicate concentrations (100 µg/mL–0.16 µg/mL for extract/fractions and 50 µg/mL–0.08 µg/mL for compounds). After an incubation period of 72 h at 37 °C, 100 μL of the SYBR Green I solution prepared in a lysis buffer (0.2 µL of 10,000× SYBR Green I per mL of lysis buffer) consisting of Tris (20 mM; pH 7.5), EDTA (5 mM), saponin (0.008%; m/v), and Triton X-100 (0.08%; v/v) was added to each well, mixed twice gently with a multi-channel pipette, and incubated in the dark at 37 °C for 1 h. Fluorescence was measured using the microplate reader Infinite M200 (Tecan) at an excitation and emission wavelength of 485 and 538 nm, respectively. […] The data analysis was performed with GraphPad Prism 8.0 software, fitting by nonlinear regression, and concentration–response curves were generated to determine the median inhibitory concentration (IC50) for each sample.
The resistance index (RI) was determined as the ratio of the IC50 of the samples on the multi-resistant strain Dd2 and the IC50 on the chloroquine-sensitive strain 3D7 as reported by Douanla et al..

[2] = test system: P. falciparum chloroquine-sensitive (Pf3D7); test: Antiplasmodial SYBR green I based fluorescence assay, chloroquine-sensitive strain; type: cell-based; settings: Plasmodium falciparum, read-out: Pf3D7 IC50 ± SD
From the text: as §1, §2, §3, §4, §5, §6

[3] = test system: L. donovani promastigotes 1S (MHOM/SD/62/1S); test: Antileishmanial resazurin fluorimetric assay on promastigotes; type: cell-based, Leishmania donovani; settings: for IC50: Leishmania donovani
Description: as §1
Leishmania donovani promastiogtes were cultured in Medium 199 (Sigma, Darmstadt, Germany) supplemented with 10% Heat-Inactivated fetal Bovine Serum (HIFBS) (Sigma, Darmstadt, Germany) and 100 IU/mL penicillin/streptomycin. The culture was maintained in 75 cm^2 cell culture flask at 28 °C and sub-cultured every 72 h.
as §3
The antileishmanial activity of crude extracts, derived fractions, and isolated compounds against cultured L. donovani promastigotes was evaluated using the resazurin fluorimetric assay as described by Siqueira-Neto et al. (2010). Briefly, promastigotes from a logarithmic phase culture (4 × 10^5 cells/mL; 90 μL) were seeded in 96-well microplates and treated with 10 μL of inhibitors at different triplicate concentrations (100 µg/mL–0.16 µg/mL for extract/fractions and 50 µg/mL–0.08 µg/mL for compounds). Plates were incubated for 28 h at 28 °C, followed by the addition of […] resazurin (0.15 mg/mL in DPBS; Sigma, Darmstadt, Germany). The negative and positive controls were, respectively, 0.1% DMSO and amphotericin B (Sigma, Darmstadt, Germany) (10–0.016 μg/mL) treated wells. After an additional incubation for 44 h, plates were then read on a Magelan Infinite M200 fluorescence plate reader (Tecan, Männedorf, Switzerland) at excitation and emission wavelengths of 530 and 590 nm, respectively. For each sample, growth inhibition percentages were calculated with Microsoft Excel Software; then, from the nonlinear regression fit, concentration–response curves were generated to deduce the median inhibitory concentration (IC50) using the GraphPad Prism 8.0 software.

Pf 3D7 = test system: Pf 3D7; parameters: method as in PMID 34187456; settings: from Hymenostegia afzelii and Endodesmia calophylloides; read-out: IC50 against Pf 3D7; cited from earlier work
[4] = In vitro cytotoxicity assay (resazurin) on Raw 264.7 macrophage cells; type: cell-based, murine; settings: mouse
Description: RAW 264.7 cells were obtained from RIKEN BioResource Centre Cell Bank (Tsukuba, Japan) and cultured in Dulbecco’s modified Eagle medium (DMEM) containing 1% penicillin–streptomycin and 10% FBS under 5% CO2 and humidified atmosphere at 37 °C and sub-cultured every 72 h.
as §3
The murine macrophages, Raw 264.7 cells were grown in a T-25 cm^2 flask containing the complete Dulbecco’s modified Eagle’s medium (Sigma–Aldrich, Munich, Germany) supplemented with 10% FBS (Sigma–Aldrich, Munich, Germany), 1% non-essential amino acids, and 1% (v/v) penicillin–streptomycin (Sigma–Aldrich, Munich, Germany) and incubated at 37° in a humidified atmosphere containing 5% CO2. For the experiments, 80–90% confluent cell culture was trypsinized, counted using a Neubauer haemacytometer, and seeded into a 96-well cell culture treated flat-bottomed plate (SARSTEDT, Inc. Newton, NC 28658, USA) at a cell density of 10^4 cells/well. Plates were incubated overnight to allow cell adhesion. Cells were then treated with serially diluted concentrations of crude extract, fractions, and isolated compounds for 48 h. Podophyllotoxin (Sigma–Aldrich, Munich, Germany) was used as positive control with the highest concentration of 10 μM. Afterwards, 10 μL of resazurin solution (0.15 mg/mL prepared in PBS) was added to each well, and the plates were additionally incubated for 4 h. Of important note, resazurin is a nonfluorescent, nontoxic, and cell-permeable blue dye which is used to quantify cell viability following its conversion into the highly fluorescent pink dye resorufin in response to changes in the reducing environment within the cytosol of the cell. The level of fluorescence that positively correlates with cell viability was measured using a Magellan Infinite M200 plate reader (Tecan, Germany) at an excitation wavelength of 530 nm and an emission wavelength of 590 nm. The growth proliferation percentage of cells was calculated with respect to the negative control. The concentration–response curves were plotted using inhibitory percentages versus the logarithm of the drug concentration to determine the concentration of drug that reduces cell viability by 50% (CC50) using GraphPad Prism 8.0 software. Selectivity indices (SI) [SI = CC50/IC50] were determined for each inhibitor based on their antiparasitic activity (IC50) and cell cytotoxicity (CC50 on Raw cells). Samples with SI greater than 10 were classified as poorly toxic toward Raw cells.

PfDd2 = test system: PfDd2; parameters: method as in PMID 34187456; settings: from Hymenostegia afzelii and Endodesmia calophylloides; read-out: IC50 against PfDd2; cited from earlier work
[5] = test system: Leishmania donovani strain MHOM/IN/1983/AG83; parameters: method as in PMID 24949478; settings: scopoletin from leaves of Canarium patentinervium; cited from earlier work
cholinesterase = target: cholinesterase; parameters: method as in PMID 24949478; settings: cited from earlier work
Leishmania = test system: Leishmania; parameters: method as in PMID 30663371; settings: another study; cited from earlier work
Leishmania donovani [6] = test system: Leishmania donovani; parameters: method as in PMID 24802987, PMID 36399160; settings: cited from earlier work
Leishmania donovani [7] = test system: Leishmania donovani; parameters: method as in PMID 24802987, PMID 36399160; settings: cited from earlier work; remark: listed apart in the source
leishmania promastigotes = test system: leishmania promastigotes; parameters: method as in PMID 31085212; settings: β-sitosterol from Ifloga spicata; cited from earlier work
[8] = chloroquine-resistant strain Dd2, 72 h
[9] = chloroquine-sensitive strain 3D7, 72 h
[10] = promastigotes, resazurin assay, read-out: L. donovani Promastigote IC50 ± SD
[11] = read-out: L. donovani Promastigote IC50 ± SD, promastigotes, resazurin assay
[12] = Raw 264.7 macrophages, 48 h treatment, resazurin, read-out: Cytotoxicity Raw Cells CC50 ± SD

COc1c(O)cc2c(=O)oc3c(OC)c(O)cc4c(=O)oc1c2c34 [3,3′-Dimethylellagic acid (4), 3,3′-dimethylellagic acid]
IC50 [1, 8]: > 50 µg/mL | IC50 [2, 9]: > 50 µg/mL | IC50 [3, 10]: 8.07 ± 0.9 µg/mL (≈ 24.4 µM) | IC50 (Pf 3D7): 4270 nM | CC50 at 48 h [4]: > 500 µg/mL | IC50 (PfDd2): 1360 nM

C[C@@H]1[C@H](O)[C@@H](C)/C=C/C=C/C=C/C=C/C=C/C=C/C=C/[C@H](O[C@@H]2O[C@H](C)[C@@H](O)[C@H](N)[C@@H]2O)C[C@@H]2O[C@](O)(C[C@@H](O)C[C@@H](O)[C@H](O)CC[C@@H](O)C[C@@H](O)CC(=O)O[C@H]1C)C[C@H](O)[C@H]2C(=O)O [Amphotericin B, amphotericin B, reference compound]
IC50 [3, 10]: 2.9 ± 0.46 µg/mL (≈ 3.14 µM)

CCCCCCCC=CCCCCCCCCCCCCCC(O)C(O)C(COC1OC(CO)C(O)C(O)C1O)NC(=O)C(O)CCCCCCCCCCCCCC [Antroklaicerebroside (1), (2S,3S,4R,2′R,18E)N-((-3,4-dihydroxy-β-D-gluco-pyranosyl)oxy)hexacos-18-en-2-yl)-2-hydroxyhexadecanamide]
melting point: 184 to 186 °C | IC50 [1, 8]: > 50 µg/mL | IC50 [2, 9]: 42.04 ± 0.08 µg/mL | IC50 [3, 10]: 6.19 ± 0.79 µg/mL (≈ 7.33 µM) | CC50 at 48 h [4]: > 500 µg/mL

C[C@@H]1CC[C@H]2[C@@H](C)C(=O)O[C@@H]3O[C@@]4(C)CC[C@@H]1[C@]32OO4 [Artemesin, Artemisinin, reference compound]
IC50 ([1]; chloroquine-resistant strain Dd2, 72 h, reference drugs in µM): 23.7 ± 0.24 µM | IC50 ([2]; chloroquine-sensitive strain 3D7, 72 h, reference drugs in µM): 0.02 µM

CCN(CC)CCCC(C)Nc1ccnc2cc(Cl)ccc12 (stereo not shown) [Chloroquine, reference compound]
IC50 ([1]; DD2, 72 h): 21.7 ± 0.25 µM | IC50 ([2]; 3D7, 72 h): 0.85 ± 0.01 µM

O=c1ccc2cc(O)c(O)cc2o1 [Esculetin (2), 6,7-dihydroxycoumarin]
IC50 [1, 8]: 9.3 ± 0.29 µg/mL | IC50 [2, 9]: 45.57 ± 0.08 µg/mL | IC50 [3, 10]: > 50 µg/mL | CC50 at 48 h [4]: > 500 µg/mL

COc1cc([C@@H]2c3cc4c(cc3[C@H](O)[C@H]3COC(=O)[C@H]23)OCO4)cc(OC)c1OC [Podophyllotoxin, reference compound]
CC50 at 48 h ([4]; Raw 264.7 macrophages, positive control, unit µM, read-out: Cytotoxicity Raw Cells CC50 ± SD): 0.71 ± 0.2 µM

COc1cc2ccc(=O)oc2cc1O [Scopoletin (3), 7-hydroxy-6-methoxycoumarin]
IC50 against Leishmania donovani strain MHOM/IN/1983/AG83 [5]: 163.3 µg/mL (≈ 850 µM) | IC50 [1, 8]: > 50 µg/mL | anticholinesterase activity IC50 (cholinesterase): 51 µg/mL | IC50 [2, 9]: > 50 µg/mL | antileishmanial activity IC50 (Leishmania): 6.804 µg/mL | IC50 [3, 10]: 6.4 ± 0.8 µg/mL (≈ 33.3 µM) | CC50 at 48 h [4]: > 500 µg/mL

CC[C@H](/C=C/[C@@H](C)[C@H]1CC[C@H]2[C@@H]3CC=C4C[C@@H](O)CC[C@]4(C)[C@H]3CC[C@]12C)C(C)C [Stigmasterol (6), stigmasterol]
IC50 ([1]; DD2, 72 h): > 50 µg/mL | IC50 ([2]; 3D7, 72 h): > 50 µg/mL | IC50 [3, 11]: 8.07 ± 0.9 µg/mL (≈ 19.6 µM) | L. donovani Promastigote IC50 ± SD ([3]; promastigotes, resazurin assay): 9.14 ± 0.96 µg/mL | CC50 at 48 h [4, 12]: > 500 µg/mL

O=c1oc2c(O)c(O)cc3c(=O)oc4c(O)c(O)cc1c4c23 [ellagic acid]
parasitemia in in vivo antileishmanial mouse model (Leishmania donovani [6]): significatively reduced parasitemia | in vitro effect against Leishmania donovani (Leishmania donovani [7]): exhibited an in vitro effect

CC[C@H](CC[C@@H](C)[C@H]1CC[C@H]2[C@@H]3CC=C4C[C@@H](O)CC[C@]4(C)[C@H]3CC[C@]12C)C(C)C [β-sitosterol (5), β-sitosterol]
IC50 ([1]; DD2, 72 h): > 50 µg/mL | IC50 ([2]; 3D7, 72 h): 45.3 ± 1.66 µg/mL | IC50 [3, 11]: 5.56 ± 0.74 µg/mL (≈ 13.4 µM) | CC50 at 48 h [4, 12]: > 500 µg/mL | IC50 against leishmania promastigotes (leishmania promastigotes): 9.2 ± 0.06 µg/mL (≈ 22.2 µM)
